Consider two compounds from BindingDB's records for doi:10.1021/jm00114a027 (Research Biochemicals, 1991).

The term IC50 denotes the concentration that gives 50% inhibition.

This experiment can be described thus: Compound was tested for binding affinity to dopamine reuptake sites in the tissue homogenates prepared from […] striatum using [3H]CFT as radioligand.

SMILES strings stand for the structures.

For the compound `COC(=O)[C@@H]1C2CC[C@H](C[C@@H]1c1ccc(I)cc1)N2C`, the IC50 was 1.6 nM. `COC(=O)C1C(c2ccc(I)cc2)CC2CCC1N2C` [(3S,5R)-methyl 3-(4-iodophenyl)-8-methyl-8-aza-bicyclo[3.2.1]octane-2-carboxylate] registered an IC50 of 88 nM.
